This is an account of results in patent US6506772B1, “Substituted [1,2,4]triazolo[1,5a]pyridine derivatives with activity as adenosine receptor ligands” (Hoffmann-La Roche Inc., priority 2000, dated 2003).

Assay [1] concerns the target T1, human adenosine A2A receptor (Homo sapiens, UniProt P29274).
T1 construct: expressed in transfected cells; host or cells: CHO cells, Semliki Forest virus expression system; membrane preparation
As to the kind of experiment: Human adenosine A2A receptor [3H]-SCH-58261 binding assay. As to conditions: for pKi: affinity to human adenosine A2A receptor, read-out: Ki HA2A; for selectivity (A1/A2a): calculated ratio of the affinity to the HA1 receptor to the HA2a receptor.

The target in another assay is T2, HA1 adenosine receptor (Homo sapiens, UniProt P30542).
T2 sequence (P30542 1-326): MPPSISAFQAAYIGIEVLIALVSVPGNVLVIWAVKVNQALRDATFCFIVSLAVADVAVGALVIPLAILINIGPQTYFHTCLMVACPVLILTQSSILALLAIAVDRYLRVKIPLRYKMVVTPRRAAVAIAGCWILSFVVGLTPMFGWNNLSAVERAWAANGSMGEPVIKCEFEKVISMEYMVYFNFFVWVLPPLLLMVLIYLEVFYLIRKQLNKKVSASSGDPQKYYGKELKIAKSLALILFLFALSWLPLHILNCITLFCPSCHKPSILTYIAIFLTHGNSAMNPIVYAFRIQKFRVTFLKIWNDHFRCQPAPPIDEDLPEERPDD
In words: Human adenosine A1 receptor affinity (Ki hA1). As to conditions: affinity to human adenosine A1 receptor. The format is binding.

pKi: −log10 of the molar value.

T1 sequence (P29274 whole entry): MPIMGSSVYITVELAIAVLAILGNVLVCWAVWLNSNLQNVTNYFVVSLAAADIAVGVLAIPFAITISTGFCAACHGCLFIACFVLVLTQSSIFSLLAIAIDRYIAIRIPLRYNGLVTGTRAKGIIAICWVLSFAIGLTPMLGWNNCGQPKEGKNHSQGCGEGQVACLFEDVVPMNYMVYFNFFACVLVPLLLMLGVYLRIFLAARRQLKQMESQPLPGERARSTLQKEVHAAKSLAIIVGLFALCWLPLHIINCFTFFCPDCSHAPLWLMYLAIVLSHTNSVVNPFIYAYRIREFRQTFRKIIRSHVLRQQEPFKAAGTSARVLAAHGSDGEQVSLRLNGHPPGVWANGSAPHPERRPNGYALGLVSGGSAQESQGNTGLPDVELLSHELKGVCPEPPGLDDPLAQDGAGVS

By pKi is commonly meant the negative decadic logarithm of the Ki, by convention in mol/L. As for `CCN(Cc1ccncc1)C(=O)c1cc(N)n2nc(-c3ccc(Br)o3)nc2c1` [Example 314, 5-Amino-2-(5-bromo-furan-2-yl)-[1,2,4]triazolo[1,5-a]pyridine-7-carboxylic acid ethyl-pyridin-4-ylmethyl-amide], in assay [1], the negative logarithm of the Ki (pKi) is 8.92 and the “selectivity (A1/A2a)” value is on record as 49.3. Also, the pKi on HA1 adenosine receptor is 7.23.

As to `Nc1cc(C(=O)N2CC=CCC2)cc2nc(-c3nccs3)nn12` [Example 315, (5-Amino-2-thiazol-2-yl-[1,2,4]triazolo[1,5-a]pyridin-7-yl)-(3,6-dihydro-2H-pyridin-1-yl)-methanone], the negative-log Ki (pKi) in assay [1] is 7.01; at HA1 adenosine receptor it was 5.70. For the same compound, the “selectivity (A1/A2a)” value in assay [1] is listed as 20.4.

Consider `CC1CCCN(C(=O)c2cc(N)n3nc(-c4nccs4)nc3c2)C1` (stereo not drawn) [Example 316, (5-Amino-2-thiazol-2-yl-[1,2,4]triazolo[1,5-a]pyridin-7-yl)-(3,methyl-piperidin-1-yl)-methanone], for which, in assay [1], the negative-log Ki (pKi) was 7.14 and the “selectivity (A1/A2a)” value is recorded as 30.3. At HA1 adenosine receptor, this compound showed a pKi of 5.66.

Turning to `Nc1cc(C(=O)N2CCCCCC2)cc2nc(-c3nccs3)nn12` [Example 317, (5-Amino-2-thiazol-2-yl-[1,2,4]triazolo[1,5-a]pyridin-7-yl)-azepan-1-yl-methanone], in assay [1], the pKi is 7.46 and the “selectivity (A1/A2a)” value is listed as 33.6. On HA1 adenosine receptor, this compound showed a negative logarithm of the Ki (pKi) of 5.94.

With `CCCN(CC1CC1)C(=O)c1cc(N)n2nc(-c3nccs3)nc2c1` [Example 319, 5-Amino-2-thiazol-2-yl-[1,2,4]triazolo[1,5-a]pyridine-7-carboxylic acid cyclopropylmethyl-propyl-amide], the negative-log Ki (pKi) is 7.06 in assay [1] and 5.91 on HA1 adenosine receptor. For the same compound, in assay [1], the “selectivity (A1/A2a)” value was 14.3.

Regarding `CC1CCCC(C)N1C(=O)c1cc(N)n2nc(-c3nccs3)nc2c1` (stereo not drawn) [Example 320], in assay [1], the negative logarithm of the Ki (pKi) was 7.08 and the “selectivity (A1/A2a)” value is listed as 7.4. For the same compound, at HA1 adenosine receptor, the pKi is 6.21.

As to `CN(CCc1ccccc1)C(=O)c1cc(N)n2nc(-c3nccs3)nc2c1` [Example 322, 5-Amino-2-thiazol-2-yl-[1,2,4]triazolo[1,5-a]pyridine-7-carboxylic acid methyl-phenethyl-amide], the negative logarithm of the Ki (pKi) in assay [1] is 6.90; on HA1 adenosine receptor, 5.91. The “selectivity (A1/A2a)” value in assay [1] is recorded as 9.6.

Take `CCN(Cc1ccccc1)C(=O)c1cc(N)n2nc(-c3nccs3)nc2c1` [Example 323, 5-Amino-2-thiazol-2-yl-[1,2,4]triazolo[1,5-a]pyridine-7-carboxylic acid benzyl-ethyl-amide]: in assay [1], the pKi is 7.60 and the “selectivity (A1/A2a)” value is given as 13.6. The negative logarithm of the Ki (pKi) on HA1 adenosine receptor is 6.47.

For the compound `CCN(Cc1ccncc1)C(=O)c1cc(N)n2nc(-c3nccs3)nc2c1` [Example 325, 5-Amino-2-thiazol-2-yl-[1,2,4]triazolo[1,5-a]pyridine-7-carboxylic acid ethyl-pyridin-4-ylmethyl-amide], in assay [1], the pKi is 7.42 and the “selectivity (A1/A2a)” value is recorded as 35.2. Further, on HA1 adenosine receptor, the pKi was 5.88.

On to `Nc1cc(C(=O)N(Cc2ccccc2)Cc2ccccc2)cc2nc(-c3nccs3)nn12` [Example 327, 5-Amino-2-thiazol-2-yl-[1,2,4]triazolo[1,5-a]pyridine-7-carboxylic acid dibenzylamide], for which, in assay [1], the pKi was 8.24 and the “selectivity (A1/A2a)” value was 22.2. The same compound had a pKi on HA1 adenosine receptor of 6.89.

On to `CCNC(=O)c1cc(N)n2nc(-c3nccs3)nc2c1` [Example 328, 5-Amino-2-thiazol-2-yl-[1,2,4]triazolo[1,5-a]pyridine-7-carboxylic acid ethylamide], for which, in assay [1], the negative-log Ki (pKi) is 7.50 and the “selectivity (A1/A2a)” value is recorded as 39.1. The compound further showed a negative logarithm of the Ki (pKi) on HA1 adenosine receptor of 5.91.

Consider `CC1CCCCN1C(=O)c1cc(N)n2nc(-c3nccs3)nc2c1` (stereo not drawn) [Example 329, (5-Amino-2-thiazol-2-yl-[1,2,4]triazolo[1,5-a]pyridin-7-yl)-(2-methyl-piperidin-1-yl)-methanone], for which, in assay [1], the pKi is 7.33 and the “selectivity (A1/A2a)” value is on record as 41.9. This compound gave a negative logarithm of the Ki (pKi) on HA1 adenosine receptor of 5.70.

With `CC1CCN(C(=O)c2cc(N)n3nc(-c4nccs4)nc3c2)CC1` [Example 330, (5-Amino-2-thiazol-2-yl-[1,2,4]triazolo[1,5-a]pyridin-7-yl)-(4-methyl-piperidin-1-yl)-methanone], in assay [1], the negative-log Ki (pKi) is 7.19 and the “selectivity (A1/A2a)” value is 43.1. The compound further gave a negative-log Ki (pKi) on HA1 adenosine receptor of 5.56.

As to `CCCN(CCC)C(=O)c1cc(N)n2nc(-c3nccs3)nc2c1` [Example 331, 5-Amino-2-thiazol-2-yl-[1,2,4]triazolo[1,5-a]pyridine-7-carboxylic acid dipropylamide], in assay [1], the negative logarithm of the Ki (pKi) was 7.06 and the “selectivity (A1/A2a)” value is given as 30.9. The same compound gave a negative logarithm of the Ki (pKi) at HA1 adenosine receptor of 5.57.

For `Nc1cc(C(=O)N2CCCCCCC2)cc2nc(-c3nccs3)nn12` [Example 332, (5-Amino-2-thiazol-2-yl-[1,2,4]triazolo[1,5-a]pyridin-7-yl)-azocan-1-yl-methanone], in assay [1], the pKi was 7.76 and the “selectivity (A1/A2a)” value is 49.1. At HA1 adenosine receptor, this compound gave a pKi of 6.07.

`CC1CC(C)CN(C(=O)c2cc(N)n3nc(-c4nccs4)nc3c2)C1` (stereo not drawn) [Example 333, (5-Amino-2-thiazol-2-yl-[1,2,4]triazolo[1,5-a]pyridin-7-yl)-(3,5-dimethyl-piperidin-1-yl)-methanone]: in assay [1], the negative-log Ki (pKi) is 7.44 and the “selectivity (A1/A2a)” value is given as 47.9. At HA1 adenosine receptor, this compound had a pKi of 5.76.

Turning to `CCCCN(CCC)C(=O)c1cc(N)n2nc(-c3nccs3)nc2c1` [Example 334, 5-Amino-2-thiazol-2-yl-[1,2,4]triazolo[1,5-a]pyridine-7-carboxylic acid butyl-propyl-amide], the pKi in assay [1] is 7.01; at HA1 adenosine receptor, 5.75. Also, in assay [1], the “selectivity (A1/A2a)” value was 18.3.

Consider `CCNC(=O)c1cc(N)n2nc(-c3ccc(Br)o3)nc2c1` [Example 335, 5-Amino-2-(5-bromo-furan-2-yl)-[1,2,4]triazolo[1,5-a]pyridine-7-carboxylic acid ethylamide], for which the negative logarithm of the Ki (pKi) in assay [1] is 7.60; at HA1 adenosine receptor, 6.45. Moreover, the “selectivity (A1/A2a)” value in assay [1] was 14.1.

Turning to `CC1CCN(C(=O)c2cc(N)n3nc(-c4ccc(Br)o4)nc3c2)CC1` [Example 337, [5-Amino-2-(5-bromo-furan-2-yl)-[1,2,4]triazolo[1,5-a]pyridin-7-yl]-(4-methyl-piperidin-1-yl)-methanone], in assay [1], the pKi was 8.19 and the “selectivity (A1/A2a)” value is 28.6. The pKi at HA1 adenosine receptor was 6.74.

On to `CCCN(CCC)C(=O)c1cc(N)n2nc(-c3ccc(Br)o3)nc2c1` [Example 338, 5-Amino-2-(5-bromo-furan-2-yl)-[1,2,4]triazolo[1,5-a]pyridine-7-carboxylic acid dipropylamide], for which the values for the pKi (in assay [1]; on HA1 adenosine receptor) were 8.51 and 6.70, respectively. Moreover, the “selectivity (A1/A2a)” value in assay [1] is 64.4.

With `Nc1cc(C(=O)N2CCCCCCC2)cc2nc(-c3ccc(Br)o3)nn12` [Example 339, [5-Amino-2-(5-bromo-furan-2-yl)-[1,2,4]triazolo[1,5-a]pyridin-7-yl]-azocan-1-yl-methanone], in assay [1], the pKi was 8.89 and the “selectivity (A1/A2a)” value was 28.5. The same compound showed a pKi on HA1 adenosine receptor of 7.43.

With `CN(C(=O)c1cc(N)n2nc(-c3ccc(Br)o3)nc2c1)C1CCCCC1` [Example 340, 5-Amino-2-(5-bromo-furan-2-yl)-[1,2,4]triazolo[1,5-a]pyridine-7-carboxylic acid cyclohexyl-methyl-amide], in assay [1], the pKi is 8.59 and the “selectivity (A1/A2a)” value is 29.7. On HA1 adenosine receptor, this compound had a pKi of 7.11.

For the compound `CC1CC(C)CN(C(=O)c2cc(N)n3nc(-c4ccc(Br)o4)nc3c2)C1` (stereo not drawn) [Example 341, [5-Amino-2-(5-bromo-furan-2-yl)-[1,2,4]triazolo[1,5-a]pyridin-7-yl]-(3,5-dimethyl-piperidin-1-yl)-methanone], in assay [1], the pKi was 8.77 and the “selectivity (A1/A2a)” value is on record as 70.3. The same compound had a pKi at HA1 adenosine receptor of 6.92.

`CCCCN(CCC)C(=O)c1cc(N)n2nc(-c3ccc(Br)o3)nc2c1` [Example 342, 5-Amino-2-(5-bromo-furan-2-yl)-[1,2,4]triazolo[1,5-a]pyridine-7-carboxylic acid butyl-propyl-amide]: the negative logarithm of the Ki (pKi) in assay [1] is 8.52; on HA1 adenosine receptor, 6.85. Moreover, in assay [1], the “selectivity (A1/A2a)” value is given as 47.3.

As to `CN(Cc1ccccc1)C(=O)c1cc(N)n2nc(-c3ccc(Br)o3)nc2c1` [Example 343, 5-Amino-2-(5-bromo-furan-2-yl)-[1,2,4]triazolo[1,5-a]pyridine-7-carboxylic acid benzyl-methyl-amide], in assay [1], the negative logarithm of the Ki (pKi) is 8.57 and the “selectivity (A1/A2a)” value is 15.6. The compound further had a negative-log Ki (pKi) on HA1 adenosine receptor of 7.37.

Regarding `C=CCN(C(=O)c1cc(N)n2nc(-c3ccc(Br)o3)nc2c1)C1CCCC1` [Example 344, 5-Amino-2-(5-bromo-furan-2-yl)-[1,2,4]triazolo[1,5-a]pyridine-7-carboxylic acid allyl-cyclopentyl-amide], the pKi in assay [1] is 8.80; at HA1 adenosine receptor it was 7.14. Besides, in assay [1], the “selectivity (A1/A2a)” value is 44.8.

On to `CCN(C(=O)c1cc(N)n2nc(-c3ccc(Br)o3)nc2c1)C1CCCCC1` [Example 345, 5-Amino-2-(5-bromo-furan-2-yl)-[1,2,4]triazolo[1,5-a]pyridine-7-carboxylic acid cyclohexyl-ethyl-amide], for which, in assay [1], the pKi was 8.70 and the “selectivity (A1/A2a)” value is reported as 31.1. In addition, on HA1 adenosine receptor, the pKi is 7.21.
